In patent US20250326771A1, “PIPERAZINE DERIVATIVES USEFUL IN HIV THERAPY” (VIIV HEALTHCARE COMPANY, priority 2022, published 2025):

Columns and labels:
[1] = tested on: Jurkat HIV-luciferase clones; experiment: Jurkat latency reversal assay; assay type: cell-based; settings: Homo sapiens, 48 h; Jurkat latency reversal assay potency; read-out: Jurkat pEC50 (converted)
How it was run: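 Compounds are titrated 3-fold over 14 points from 10 μM in duplicate at 0.5% DMSO. Clones C16, 115 and N6, grown with 500 nM EFV, are co-incubated for 48 h at 37° C. Virally driven luciferase is read by luminescence, and EC50 and maximal percent activation versus vehicle come from a four-parameter model.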

cIAP1-BIR3 = cIAP1-BIR3 (Homo sapiens (Human), UniProt Q13490); experiment: BIR binding assay (FRET competition), cIAP1 BIR3; settings: for cIAP1 BIR3 vs BIR2 separation window: fold separation (FS) for cIAP1
cIAP1-BIR3, sequence (Q13490 253-363): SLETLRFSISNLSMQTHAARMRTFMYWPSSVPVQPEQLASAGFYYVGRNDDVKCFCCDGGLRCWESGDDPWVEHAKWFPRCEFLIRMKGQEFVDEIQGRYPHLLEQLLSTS
How it was run: (§1)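 His-tagged domains (50 nM cIAP1-BIR3, 325 nM cIAP2-BIR2, 325 nM cIAP1-BIR2, 100 nM XIAP-BIR3) compete with compounds for a 200 nM AlexaFluor647-labelled SMAC/DIABLO peptide in HEPES buffer, pH 7.4, for 60 min. Then 2 nM Eu-W1024 is added for 30 min. The 615/665 nm ratio is fit by four-parameter fit to give IC50.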

cIAP1-BIR2 = cIAP1-BIR2 (Homo sapiens (Human), UniProt Q13490); experiment: BIR binding assay (FRET competition), cIAP1 BIR2
cIAP1-BIR2, sequence (Q13490 173-257): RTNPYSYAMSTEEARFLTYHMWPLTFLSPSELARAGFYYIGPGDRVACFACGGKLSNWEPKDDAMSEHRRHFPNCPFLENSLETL
How it was run: as §1

cIAP2-BIR3 = cIAP2-BIR3 (Homo sapiens (Human), UniProt Q13489); experiment: BIR binding assay (FRET competition), cIAP2 BIR3; settings: for cIAP2 BIR3 vs BIR2 separation window: fold separation (FS) for cIAP2
cIAP2-BIR3, sequence (Q13489 238-349): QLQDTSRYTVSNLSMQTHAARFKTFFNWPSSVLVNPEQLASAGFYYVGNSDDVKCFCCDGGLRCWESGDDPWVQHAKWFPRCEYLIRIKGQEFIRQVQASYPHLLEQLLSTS

cIAP2-BIR2 = cIAP2-BIR2 (Homo sapiens (Human), UniProt Q13489); experiment: BIR binding assay (FRET competition), cIAP2 BIR2
cIAP2-BIR2, sequence (Q13489 158-242): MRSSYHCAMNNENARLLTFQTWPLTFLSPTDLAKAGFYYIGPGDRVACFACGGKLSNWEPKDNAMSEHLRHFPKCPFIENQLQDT
How it was run: as §1

XIAP-BIR3 = XIAP-BIR3 (Homo sapiens (Human), UniProt P98170); experiment: BIR binding assay (FRET competition), XIAP BIR3
XIAP-BIR3, sequence (P98170 241-356): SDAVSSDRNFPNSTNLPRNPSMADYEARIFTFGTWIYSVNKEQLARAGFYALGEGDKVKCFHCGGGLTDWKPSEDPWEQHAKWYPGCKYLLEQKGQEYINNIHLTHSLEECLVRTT
How it was run: as §1

| SMILES | EC50 [1] [nM] | IC50 (cIAP1-BIR3) [nM] | cIAP1 BIR3 vs BIR2 separation window (cIAP1-BIR3) | IC50 (cIAP1-BIR2) [nM] | IC50 (cIAP2-BIR3) [nM] | cIAP2 BIR3 vs BIR2 separation window (cIAP2-BIR3) | IC50 (cIAP2-BIR2) [nM] | IC50 (XIAP-BIR3) [nM] |
| --- | --- | --- | --- | --- | --- | --- | --- | --- |
| C[C@@H]1CN(CC(=O)N2CC(C)(C)c3[nH]c(=O)c(Cc4ccc(F)cc4)cc32)[C@@H](CN2CCO[C@H](COCCOCCOC[C@@H]3CN(C[C@H]4CN[C@H](C)CN4CC(=O)N4CC(C)(C)c5[nH]c(=O)c(Cc6ccc(F)cc6)cc54)CCO3)C2)CN1 [Example 83, 1,1′-(2,2′-((3R,3′R,6R,6′R)-(((2S,2'S)-(((oxybis(ethane-2,1-diyl))bis(oxy))bis(methylene))bis(morpholine-2,4-diyl))bis(methylene))bis(3-methylpiperazine-6,1-diyl))bis(acetyl))bis(6-(4-fluorobenzyl)-3,3-dimethyl-1,2,3,4-tetrahydro-5H-pyrrolo[3,2-b]pyridin-5-one)] | 12.6 to 63.1 | 15.8 to 31.6 | +++ (10,000>FS>1,000) | 3160 to 10000 | 15.8 to 31.6 | +++ (10,000>FS>1,000) | 3160 to 10000 | 15.8 to 31.6 |
| Cc1cc(OC[C@@H]2CN(C[C@H]3CN[C@H](C)CN3CC(=O)N3CC(C)(C)c4[nH]c(=O)c(Cc5ccc(F)cc5)cc43)CCO2)cc(OC[C@@H]2CN(C[C@H]3CN[C@H](C)CN3CC(=O)N3CC(C)(C)c4[nH]c(=O)c(Cc5ccc(F)cc5)cc43)CCO2)c1 [Example 86, 1,1′-(2,2′-((3R,3′R,6R,6′R)-(((2S,2'S)-(((5-methyl-1,3-phenylene)bis(oxy))bis(methylene))bis(morpholine-2,4-diyl))bis(methylene))bis(3-methylpiperazine-6,1-diyl))bis(acetyl))bis(6-(4-fluorobenzyl)-3,3-dimethyl-1,2,3,4-tetrahydro-5H-pyrrolo[3,2-b]pyridin-5-one)] | 0.49 to 12.6 | 7.94 to 15.8 | +++ (10,000>FS>1,000) | 1000 to 3160 | 7.94 to 15.8 | +++ (10,000>FS>1,000) | 1000 to 3160 | 15.8 to 31.6 |
| C[C@@H]1CN(CC(=O)N2CC(C)(C)c3[nH]c(=O)c(Cc4ccc(F)cc4)cc32)[C@@H](CN2CCO[C@H](COc3ccc(Cl)c(OC[C@@H]4CN(C[C@H]5CN[C@H](C)CN5CC(=O)N5CC(C)(C)c6[nH]c(=O)c(Cc7ccc(F)cc7)cc65)CCO4)c3)C2)CN1 [Example 89, 1,1′-(2,2′-((3R,3′R,6R,6′R)-(((2S,2'S)-(((4-chloro-1,3-phenylene)bis(oxy))bis(methylene))bis(morpholine-2,4-diyl))bis(methylene))bis(3-methylpiperazine-6,1-diyl))bis(acetyl))bis(6-(4-fluorobenzyl)-3,3-dimethyl-1,2,3,4-tetrahydro-5H-pyrrolo[3,2-b]pyridin-5-one)] | 0.49 to 12.6 | 15.8 to 31.6 | +++ (10,000>FS>1,000) | 3160 to 10000 | 7.94 to 15.8 | +++ (10,000>FS>1,000) | 1000 to 3160 | 15.8 to 31.6 |
| C[C@@H]1CN(CC(=O)N2CC(C)(C)c3c2cc(Cc2ccc(F)cc2)c(=O)n3C)[C@@H](CN2CCO[C@H](COCC#CC#CCOC[C@@H]3CN(C[C@H]4CN[C@H](C)CN4CC(=O)N4CC(C)(C)c5c4cc(Cc4ccc(F)cc4)c(=O)n5C)CCO3)C2)CN1 [Example 116, 1,1′-(2,2′-((3R,3′R,6R,6′R)-(((2S,2'S)-((hexa-2,4-diyne-1,6-diylbis(oxy))bis(methylene))bis(morpholine-2,4-diyl))bis(methylene))bis(3-methylpiperazine-6,1-diyl))bis(acetyl))bis(6-(4-fluorobenzyl)-3,3,4-trimethyl-1,2,3,4-tetrahydro-5H-pyrrolo[3,2-b]pyridin-5-one)] | 316 to 3310 | 15.8 to 31.6 | +++ (10,000>FS>1,000) | 3160 to 10000 | 15.8 to 31.6 | +++ (10,000>FS>1,000) | 3160 to 10000 | 31.6 to 501 |
| C[C@@H]1CN(CC(=O)N2CC(C)(C)c3[nH]c(=O)c(Cc4ccc(F)cc4)cc32)[C@@H](CN2CCO[C@H](C(=O)NCCCCCCCCNC(=O)[C@@H]3CN(C[C@H]4CN[C@H](C)CN4CC(=O)N4CC(C)(C)c5[nH]c(=O)c(Cc6ccc(F)cc6)cc54)CCO3)C2)CN1 [Example 119, (2S,2'S)-N,N′-(octane-1,8-diyl)bis(4-(((2R,5R)-1-(2-(6-(4-fluorobenzyl)-3,3-dimethyl-5-oxo-2,3,4,5-tetrahydro-1H-pyrrolo[3,2-b]pyridin-1-yl)-2-oxoethyl)-5-methylpiperazin-2-yl)methyl)morpholine-2-carboxamide)] | 12.6 to 63.1 | 1.38 to 7.94 | +++ (10,000>FS>1,000) | 1000 to 3160 | 1.38 to 7.94 | +++ (10,000>FS>1,000) | 22.4 to 1000 | 7.94 to 15.8 |
